This is an account of results in US6562866B1 (priority 1998, dated 2003).

Data set [1] relates to main artery fatty streak / arterial endothelium. Kind of data set: Analysis for fatty streak in the main artery of cholesterol-fed rabbits. In kind it is in vivo, New Zealand White rabbits. The conditions noted are these: 1% cholesterol diet plus 0.1% rutin or quercetin or 1 mg/kg Lovastatin, 6 weeks, Oil Red O staining. Here is the method: 24 three-month-old New Zealand White rabbits (Yeonam Horticulture and Animal Husbandry College, Korea), each weighing about 2.5 to 2.6 kg, were raised under a condition of temperature 20±2° C., relative humidity 55±5%, and photoperiod 12L/12D. […] RC4 diet comprises 7.6% moisture, 22.8% crude protein, 2.8% crude fat, 8.8% crude ash, 14.4% crude cellulose and 43.6% soluble nitrogen-free substances.
The chest of each of the rabbits sacrificed in Step 2 was incised. The downward portion of the main artery from the site 1 cm above the aortic valve was cut out in a length of about 5 cm and the fat surrounding the main artery was removed. The main artery was incised in the middle along the longitudinal axis and pinned to a dish. The moist artery was photographed and, then, the staining of fatty streaks was carried out in accordance with the method of Esper, E., et al. (J. Lab. Clin. Med., 121, 103-110 (1993)) as follows.
A part of the incised main artery was washed three times with anhydrous propylene glycol for 2 min and stained for 30 min. with a saturated solution of Oil Red O (ORO, Sigma Co.) dissolved in propylene glycol. Thereafter, the artery was washed twice with 85% propylene glycol for 3 min. to remove remaining staining solution and, then washed with physiological saline. The artery was photographed and the photograph was traced. The area of stained region (fatty streak region) was determined with an image analyzer (LEICA, Q-600, Germany) and its proportion (%) to the total arterial area was calculated.

A short description of data set [2]: Chemical analysis of blood of rabbits fed 1% cholesterol diets. In kind it is in vivo, New Zealand White rabbits. The conditions noted are these: 6 weeks; for lowering of total plasma cholesterol level as compared to the comparative group: 0.1% in 1% cholesterol diet. Here is the method:
24 three-month-old New Zealand White rabbits (Yeonam Horticulture and Animal Husbandry College, Korea), each weighing about 2.5 to 2.6 kg, were raised under a condition of temperature 20±2° C., relative humidity 55±5%, and photoperiod 12L/12D. […] RC4 diet comprises 7.6% moisture, 22.8% crude protein, 2.8% crude fat, 8.8% crude ash, 14.4% crude cellulose and 43.6% soluble nitrogen-free substances. Rutin and quercetin were purchased from Sigma Co. (St. Louis, Mo.).
The rabbits were fed for 6 weeks while being allowed free access to the diets and water.
After six weeks, the rabbits were anesthetized with an intramuscular injection of ketamine (50 mg/kg) in the femoral region and sacrificed. A blood sample was taken from the heart of each rabbit, allowed to stand for 2 hours and centrifuged at 3,000 rpm for 15 minutes and the supernatant serum was separated and stored in a freezer before use.
The chemical analysis of blood was carried out by employing a blood chemical analyzer (CIBA Corning 550 Express, USA) to determine the changes in GOT, GPT, γ-GTP, total cholesterol and triglyceride levels.

The test system of another data set is ACAT. Nature of the data set: ACAT assay on liver microsomes of the fed rats. The data set is classed as biochemical. The conditions noted are these: liver microsomes of rats fed 0.1% test substance in 1% cholesterol diet, versus control group. The method, then: 1 g each of the livers taken from each group of rats of Example 2 was homogenized in 5 ml of homogenization medium (0.1 M KH2PO4, pH 7.4, 0.1 mM EDTA and 10 mM β-mercaptoethanol). The homogenate was centrifuged at 3,000×g for 15 min. at 4° C. and the supernatant thus obtained was centrifuged at 15,000×g for 15 min. at 4° C. to obtain a supernatant. The supernatant was put into an ultracentrifuge tube (Beckman) and centrifuged at 100,000×g for 1 hour at 4° C. to obtain microsomal pellets, which were then suspended in 3 ml of the homogenization medium and centrifuged at 100,000×g for 1 hour at 4° C. The pellets thus obtained were suspended in 1 ml of the homogenization medium. The protein concentration of the resulting suspension was determined by Lowry's method and then adjusted to 4 to 8 mg/ml. The resulting suspension was stored in a deep freezer (Biofreezer, Forma Scientific Inc.). […]
200 μl of the resulting supernatant was put in a scintillation bottle and 4 ml of scintillation fluid (Lumac) was added thereto. The mixture was assayed for radioactivity with 1450 Microbeta liquid scintillation counter (Wallacoy, Finland). ACAT activity was calculated as picomoles of cholesteryl oleate synthesized per min. per mg protein (pmoles/min/mg protein).

Data set [3] in a line: Administration of rutin capsules to humans, plasma lipid metabolism. In kind it is in vivo, human. The conditions noted are these: two men, daily oral dose of lomg/kg as capsule, 60 days, before vs after. The method, then:
The plasma cholesterol and neutral lipid (triglyceride) contents were determined before and after the administration.

A further data set deals with ICR mice. Kind of data set: Toxicity of orally administered rutin (single oral dose, 10 day observation). Here is the method:
12 seven-week-old, specific pathogen-free ICR […] mice, six female mice each weighing about 25 to 29 g and six male mice each weighing about 34 to 38 g, were kept under an environment of 22±1° C., 55±5% relative humidity and 12L/12D photoperiod. Fodder (Cheiljedang Co., mouse and rat fodder) and water were sterilized and fed to the mice.
Further, on the 10th day, the mice were sacrificed and the internal organs were visually examined.

Setting [4] is: 1% cholesterol diet plus 0.1% rutin or quercetin or 1 mg/kg Lovastatin.

On to `O=c1c(O)c(-c2ccc(O)c(O)c2)oc2cc(O)cc(O)c12` [Quercetin, quercetin], for which the “A: Proportion (%) of fatty streak region to the total arterial area” value in data set [1] is reported as 8%. Besides, the “lowering of total plasma cholesterol level as compared to the comparative group” value in data set [2] was determined as 30%. In data set [2] (setting [4]), the “TG (triglyceride)” value was found to be 30.0 mg/dL and the “Total-C (total cholesterol)” value came out at 820.0 mg/dL. In addition, in the data set on ACAT, the “% Inhibition on ACAT activity” value came out at 20%.
With `C[C@@H]1O[C@@H](OC[C@H]2O[C@@H](Oc3c(-c4ccc(O)c(O)c4)oc4cc(O)cc(O)c4c3=O)[C@H](O)[C@@H](O)[C@@H]2O)[C@H](O)[C@H](O)[C@H]1O` [Rutin], in data set [3], the “reduction of plasma cholesterol content” value is 25% and the “reduction of plasma neutral lipid (triglyceride) content” value amounted to 20%. Also, the “survival at day 10” value with ICR mice (mice, single oral dose of 1,000 mg/kg) was “All the mice were alive”. In addition, the “pathological abnormality at autopsy” value in the data set with ICR mice (mice, single oral dose of 1,000 mg/kg, day 10) is reported as “did not develop any pathological abnormality”. The toxicity entry in the data set on ICR mice (mouse, in vivo, po, 160 mg/kg) is “no toxicity”. The “A: Proportion (%) of fatty streak region to the total arterial area” value in data set [1] is 10%. Further, the “lowering of total plasma cholesterol level as compared to the comparative group” value in data set [2] is reported as 30%. Besides, in data set [2] (setting [4]), the GOT worked out at 87.0 IU/l, the GPT was found to be 33.9 IU/l, the “TG (triglyceride)” value was found to be 35.3 mg/dL and the “Total-C (total cholesterol)” value was determined as 798.2 mg/dL. In addition, the γ-GTP in data set [2] (setting [4]) was 1.92 IU/l.
